The test system of one data set is Plk protein. Kind of data set: Western blotting of Plk protein level after geldanamycin treatment. The conditions noted are these: for Sensitivity of Plk to GA: Western blotting. The format is cell-based, human. As to the method:
The cells were lysed with TENSV buffer (Schulte, T. W., et al., J. Biol. Chem., 270, 24585-24588, 1995; Hutchison, K. A., et al., J. Biol. Chem., 267, 13952-13957, 1992) at 4° C. with sonication. The lysates were subjected to electrophoresis on an SDS polyacrylamide gel. Proteins were transferred to Immobilon PVDF membrane (Millipore) and immunoblotted with anti-Plk antibody (Zymed and Santa Cruz), anti-Hsp90 antibody (AC88; Stressgen), anti-GST antibody (Santa Cruz), anti-α-tubulin antibody (Amersham), or anti-Raf-1 antibody (Santa Cruz). Detection was performed with an enhanced chemiluminescence reagent (Pierce).
The immune complexes were collected by immunoprecipitation using anti-Plk antibody and electrophoresed on an SDS-polyacrylamide gel. […] Aliquots of cell lysates were immunoprecipitated with an anti-Plk or anti-Hsp90 antibody. In the same manner, aliquots of non-immunoprecipitated cell lysates were used for Western blotting.
Aliquots of cell lysates were immunoblotted with the indicated antibodies.
On the technique in general: Immunoblotting shows a protein as a band on a membrane.

The test system of another data set is Hsp90. Kind of data set: In vitro binding assay of GST-fused Plk proteins with HL-60 lysate, Hsp90 detected. The note with it: 1 μg GST-fused protein, Western blotting. Also noted: species or system human. The procedure: (§1) The PCR products were cloned into pGEM-T Easy vector (Promega) and nucleotide sequence analysis was carried out by using the dideoxynucleotide chain-termination procedure with an Applied Biosystems automated sequencer. The sequence was confirmed to be identical with a previous report (Golsteyn, R., et al., J. Cell Sci., 107, 1509-1517, 1994). Plk cDNA was inserted into pGEX-2T, and GST-fused Plk was expressed in DH5α with 0.1 mM isopropyl β-D-thiogalacto-pyranoside.
(§2) For the binding assay, 1 μg of GST-fused proteins was incubated with the lysate of HL-60 cells (1 mg) in TENSV buffer. GST-fused Plk proteins were precipitated with glutathione-agarose (Sigma). Hsp90 or α-tubulin associated with GST-fused Plk proteins was detected by Western blotting using an anti-Hsp90 or anti-α-tubulin antibody.
(§3) The circle stands for the GST protein, the dotted bar for the kinase domain (residues 53-305) and the black box for the polo-box (residues 410-439). b; GST-fused Plks, expressed in Escherichia coli, were collected with glutathione-agarose, and incubated with the lysate of HL-60 cells. After incubation, GST-fused Plks were precipitated with glutathione-agarose. Hsp90 or α-tubulin associated with GST-fused Plks was detected by Western blotting using an anti-Hsp90 or anti-α-tubulin antibody.

The next data set relates to α-tubulin. Put plainly: In vitro binding assay of GST-fused Plk proteins with HL-60 lysate, α-tubulin detected. Also on record: species or system human. The conditions noted are these: 1 μg GST-fused protein, Western blotting. As to the method:
as §1, §2, §3

For the next data set, the system named is U937 cells. Kind of data set: Cell viability of geldanamycin-treated U937 cells. The format is cell-based, human. The note with it: 100 nM.

Peptide text beside a SMILES is read from it. * marks the point of attachment. Cbz = O=C(OCc1ccccc1)*

Turning to `CC(C)C[C@@H](C=O)NC(=O)[C@H](CC(C)C)NC(=O)[C@H](CC(C)C)NC(=O)OCc1ccccc1` [MG132] (Cbz-Leu-Leu-Leu-aldehyde), the “geldanamycin-induced destabilization of Plk protein” value in the data set on Plk protein (co-treatment with proteasome inhibitor) was “inhibited”.

As for “full-length Plk: GST-fused human full-length wild-type Plk expressed in Escherichia coli”, the “binding to Hsp90” value in the data set on Hsp90 is given as “can bind”.

With “Plk/A431: GST-fused mutant Plk from A431 cells (S487G, P509S in C-terminus)”, the “association of tubulin with Plk” value in the data set with α-tubulin is “little effect”. Also, the “binding to Hsp90” value in the data set on Hsp90 is listed as “unable to bind”.

In the case of “Plk/Hep G2: GST-fused mutant Plk from Hep G2 cells (N496S, R512W in C-terminus)”, the “association of tubulin with Plk” value in the data set with α-tubulin is given as “little effect”. For the same molecule, the “binding to Hsp90” value in the data set with Hsp90 was “unable to bind”.

For `COC1=C2C[C@@H](C)C[C@H](OC)[C@H](O)[C@@H](C)/C=C(\C)[C@H](OC(N)=O)[C@@H](OC)/C=C\C=C(/C)C(=O)NC(=CC1=O)C2=O` [geldanamycin], in the data set with U937 cells (12 hours), the cell viability result is “without decreasing cell viability”. The “cell viability (majority of cells died)” value with U937 cells (after 2 days) amounted to 15.4±3.2%. Besides, the “Sensitivity of Plk to GA” value with Plk protein (A431 cells, Plk S487G, P509S) is on record as “−”; in the data set with Plk protein (A549 cells, Plk D457G) it was “−”; in the data set on Plk protein (HL-60 cells, wt Plk), “+ (Plk protein decreased after GA treatment.)”; with Plk protein (HeLa cells, wt Plk) it was “+ (Plk protein decreased after GA treatment.)”; in the data set with Plk protein (Hep G2 cells, Plk N496S, R512W), “−”; in the data set on Plk protein (Jurkat cells, wt Plk) it was “+ (Plk protein decreased after GA treatment.)”. The “Sensitivity of Plk to GA” value was “+ (Plk protein decreased after GA treatment.)” in the data set with Plk protein (K562 cells, wt Plk); “−” in the data set with Plk protein (MKN74 cells, Plk E569K); “+ (Plk protein decreased after GA treatment.)” with Plk protein (U937 cells, wt Plk).

In the case of “K82R: GST-fused kinase negative Plk mutant”, the “binding to Hsp90” value in the data set on Hsp90 is recorded as “can bind”.
